Common to all, as to assay: Tyrosine kinase inhibition assay
Type in all cases: biochemical

The target in one assay is EPHA4 (Homo sapiens, UniProt P54764). The conditions noted are these: single concentration 1.0 μM, read-out: percent inhibition. Put shortly:
(§1)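 Values are percent inhibition at 1.0 μM compound, with inhibition above 80% defined as a hit. Peptide substrate phosphorylation was assessed by Z′-LYTE at apparent-Km ATP in HEPES pH 7.5 buffer containing MgCl2, EGTA and BRIJ-35.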

The target of the next assay is EPHA5 (Homo sapiens, UniProt P54756). The conditions noted are these: single concentration 1.0 μM, read-out: percent inhibition. The essentials: as §1
The next assay addresses EPHA7 (Homo sapiens, UniProt Q15375). The conditions noted are these: single concentration 1.0 μM, read-out: percent inhibition. The essentials: as §1
The next assay addresses T1, EPHA8 (Homo sapiens, UniProt P29322).
T1 sequence (P29322 28-1005): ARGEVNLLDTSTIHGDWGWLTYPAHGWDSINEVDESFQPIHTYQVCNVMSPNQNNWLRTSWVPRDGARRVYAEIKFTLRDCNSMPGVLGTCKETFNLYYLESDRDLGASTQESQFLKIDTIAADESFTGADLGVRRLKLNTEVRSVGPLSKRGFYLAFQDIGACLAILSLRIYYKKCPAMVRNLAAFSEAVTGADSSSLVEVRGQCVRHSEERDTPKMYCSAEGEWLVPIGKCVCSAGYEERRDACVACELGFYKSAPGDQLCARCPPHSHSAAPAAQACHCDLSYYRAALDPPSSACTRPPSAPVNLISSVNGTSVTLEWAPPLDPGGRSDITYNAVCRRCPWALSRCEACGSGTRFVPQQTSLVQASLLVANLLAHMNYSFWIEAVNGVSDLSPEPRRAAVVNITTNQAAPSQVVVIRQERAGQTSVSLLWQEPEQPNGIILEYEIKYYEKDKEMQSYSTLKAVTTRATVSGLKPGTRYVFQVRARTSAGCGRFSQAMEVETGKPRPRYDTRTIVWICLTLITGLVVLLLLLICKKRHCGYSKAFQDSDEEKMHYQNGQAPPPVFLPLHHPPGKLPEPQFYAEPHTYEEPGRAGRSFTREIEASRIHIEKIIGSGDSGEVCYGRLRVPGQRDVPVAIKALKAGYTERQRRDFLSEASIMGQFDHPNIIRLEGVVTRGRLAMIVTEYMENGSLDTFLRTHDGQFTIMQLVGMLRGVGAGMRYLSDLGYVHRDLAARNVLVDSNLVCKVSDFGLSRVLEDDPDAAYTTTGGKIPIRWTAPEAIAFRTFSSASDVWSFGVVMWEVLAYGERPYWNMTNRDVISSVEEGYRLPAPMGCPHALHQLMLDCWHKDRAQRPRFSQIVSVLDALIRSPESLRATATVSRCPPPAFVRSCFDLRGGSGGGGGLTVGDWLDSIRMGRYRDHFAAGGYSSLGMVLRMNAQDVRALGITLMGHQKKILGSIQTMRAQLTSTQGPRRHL
Particulars: single concentration 1.0 μM, read-out: percent inhibition. Put shortly: as §1

A further assay has as its target FGFR2 (Homo sapiens, UniProt P21802). Particulars: single concentration 1.0 μM, read-out: percent inhibition. Put shortly:
as §1

A further assay deals with PEAK1 (Homo sapiens, UniProt Q9H792). The conditions noted are these: single concentration 1.0 μM, read-out: percent inhibition. Put shortly:
as §1

Assay [1] deals with PIK3CA/PIK3R1 (p110 alpha/p85 alpha) (Homo sapiens, UniProt P42336). The conditions noted are these: read-out: percent inhibition. Put shortly: as §1
A further assay concerns the target TNK2 (ACK) (Homo sapiens, UniProt Q07912). Particulars: single concentration 1.0 μM, read-out: percent inhibition. The essentials:
as §1

The target of the next assay is T2, ZAP70 (Homo sapiens, UniProt P43403).
T2 sequence (P43403 1-619): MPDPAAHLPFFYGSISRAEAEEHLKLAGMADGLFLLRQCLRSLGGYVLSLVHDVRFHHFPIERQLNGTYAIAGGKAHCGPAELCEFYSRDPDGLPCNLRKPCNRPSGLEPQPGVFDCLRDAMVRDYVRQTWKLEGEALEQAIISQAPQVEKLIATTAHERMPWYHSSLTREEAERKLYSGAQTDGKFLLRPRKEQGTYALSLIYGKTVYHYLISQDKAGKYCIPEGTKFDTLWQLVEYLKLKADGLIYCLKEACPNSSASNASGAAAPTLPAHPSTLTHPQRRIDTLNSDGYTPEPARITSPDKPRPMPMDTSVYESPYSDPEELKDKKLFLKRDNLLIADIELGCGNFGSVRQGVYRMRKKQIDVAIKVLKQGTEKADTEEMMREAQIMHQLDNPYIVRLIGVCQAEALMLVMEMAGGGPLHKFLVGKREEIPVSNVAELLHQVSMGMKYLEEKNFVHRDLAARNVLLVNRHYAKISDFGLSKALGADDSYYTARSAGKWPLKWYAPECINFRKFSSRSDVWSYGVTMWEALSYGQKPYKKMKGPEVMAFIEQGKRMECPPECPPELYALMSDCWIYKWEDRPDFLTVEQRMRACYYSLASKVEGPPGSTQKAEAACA
Particulars: single concentration 1.0 μM, read-out: percent inhibition. The essentials: as §1

[2] abbreviates: PIK3CA/PIK3R1 (p110 alpha/p85 alpha), single concentration 1.0 μM.

Our source for the inhibition values is patent US20250120967A1, “TYROSINE KINASES INHIBITORS AND USES THEREOF” (GREAT NOVEL THERAPEUTICS BIOTECH & MEDICALS CORPORATION, priority 2023, published 2025).

The term inhibition denotes the drop in the measured response relative to a control, in per cent.

Read-outs that look alike come from different tables or passages of the source.

Chain of EPHA5 (P54756 25-1037): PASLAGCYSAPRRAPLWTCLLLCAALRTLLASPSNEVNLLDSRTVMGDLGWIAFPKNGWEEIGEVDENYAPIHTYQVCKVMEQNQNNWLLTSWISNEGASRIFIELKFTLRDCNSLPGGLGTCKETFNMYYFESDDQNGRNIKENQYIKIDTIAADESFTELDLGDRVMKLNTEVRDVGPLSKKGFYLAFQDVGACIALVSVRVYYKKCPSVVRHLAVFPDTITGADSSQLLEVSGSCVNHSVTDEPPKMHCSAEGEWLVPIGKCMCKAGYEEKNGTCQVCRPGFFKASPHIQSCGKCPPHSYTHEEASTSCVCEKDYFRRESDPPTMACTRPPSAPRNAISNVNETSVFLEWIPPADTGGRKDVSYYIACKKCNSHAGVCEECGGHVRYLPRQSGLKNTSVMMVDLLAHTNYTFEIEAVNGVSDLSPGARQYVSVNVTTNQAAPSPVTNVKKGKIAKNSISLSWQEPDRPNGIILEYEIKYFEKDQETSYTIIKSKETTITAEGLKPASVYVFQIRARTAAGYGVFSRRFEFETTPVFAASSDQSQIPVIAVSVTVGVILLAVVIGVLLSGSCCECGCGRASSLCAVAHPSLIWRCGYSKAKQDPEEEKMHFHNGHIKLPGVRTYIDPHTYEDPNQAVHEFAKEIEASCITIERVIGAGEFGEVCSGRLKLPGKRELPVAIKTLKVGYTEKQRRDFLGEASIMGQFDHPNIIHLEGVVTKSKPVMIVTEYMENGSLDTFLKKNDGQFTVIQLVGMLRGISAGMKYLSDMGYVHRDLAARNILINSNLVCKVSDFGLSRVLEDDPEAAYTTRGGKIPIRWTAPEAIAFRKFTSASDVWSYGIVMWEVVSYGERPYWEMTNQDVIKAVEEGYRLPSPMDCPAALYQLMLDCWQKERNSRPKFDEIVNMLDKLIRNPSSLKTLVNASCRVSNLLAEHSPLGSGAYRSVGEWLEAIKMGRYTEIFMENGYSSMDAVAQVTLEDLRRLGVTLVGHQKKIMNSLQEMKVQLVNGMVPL
Chain of EPHA4 (P54764 20-986): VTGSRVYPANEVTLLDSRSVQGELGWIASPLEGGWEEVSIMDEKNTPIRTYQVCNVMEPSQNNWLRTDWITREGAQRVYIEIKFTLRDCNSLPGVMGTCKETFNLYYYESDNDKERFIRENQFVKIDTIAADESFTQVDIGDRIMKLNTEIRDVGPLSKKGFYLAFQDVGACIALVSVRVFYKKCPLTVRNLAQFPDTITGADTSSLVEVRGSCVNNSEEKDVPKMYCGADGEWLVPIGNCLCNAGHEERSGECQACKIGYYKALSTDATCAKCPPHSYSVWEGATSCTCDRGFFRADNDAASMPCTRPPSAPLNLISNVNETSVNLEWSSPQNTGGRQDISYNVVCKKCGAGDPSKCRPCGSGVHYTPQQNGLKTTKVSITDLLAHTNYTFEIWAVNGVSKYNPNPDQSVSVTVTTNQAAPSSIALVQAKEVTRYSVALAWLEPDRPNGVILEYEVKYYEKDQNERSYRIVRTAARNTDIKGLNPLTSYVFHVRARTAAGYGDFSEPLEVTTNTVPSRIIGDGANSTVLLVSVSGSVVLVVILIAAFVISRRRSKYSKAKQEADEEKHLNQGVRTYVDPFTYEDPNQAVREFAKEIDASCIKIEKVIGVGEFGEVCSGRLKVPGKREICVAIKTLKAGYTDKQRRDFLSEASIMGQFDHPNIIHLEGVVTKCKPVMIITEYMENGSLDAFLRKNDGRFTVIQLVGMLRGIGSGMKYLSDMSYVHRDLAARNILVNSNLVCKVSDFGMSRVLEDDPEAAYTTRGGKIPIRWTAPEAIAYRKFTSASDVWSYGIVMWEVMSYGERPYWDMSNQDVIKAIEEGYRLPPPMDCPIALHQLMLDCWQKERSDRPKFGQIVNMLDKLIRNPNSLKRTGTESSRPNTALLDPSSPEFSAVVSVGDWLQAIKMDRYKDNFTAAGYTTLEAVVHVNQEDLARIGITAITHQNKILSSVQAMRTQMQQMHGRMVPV
Chain of FGFR2 (P21802 22-821): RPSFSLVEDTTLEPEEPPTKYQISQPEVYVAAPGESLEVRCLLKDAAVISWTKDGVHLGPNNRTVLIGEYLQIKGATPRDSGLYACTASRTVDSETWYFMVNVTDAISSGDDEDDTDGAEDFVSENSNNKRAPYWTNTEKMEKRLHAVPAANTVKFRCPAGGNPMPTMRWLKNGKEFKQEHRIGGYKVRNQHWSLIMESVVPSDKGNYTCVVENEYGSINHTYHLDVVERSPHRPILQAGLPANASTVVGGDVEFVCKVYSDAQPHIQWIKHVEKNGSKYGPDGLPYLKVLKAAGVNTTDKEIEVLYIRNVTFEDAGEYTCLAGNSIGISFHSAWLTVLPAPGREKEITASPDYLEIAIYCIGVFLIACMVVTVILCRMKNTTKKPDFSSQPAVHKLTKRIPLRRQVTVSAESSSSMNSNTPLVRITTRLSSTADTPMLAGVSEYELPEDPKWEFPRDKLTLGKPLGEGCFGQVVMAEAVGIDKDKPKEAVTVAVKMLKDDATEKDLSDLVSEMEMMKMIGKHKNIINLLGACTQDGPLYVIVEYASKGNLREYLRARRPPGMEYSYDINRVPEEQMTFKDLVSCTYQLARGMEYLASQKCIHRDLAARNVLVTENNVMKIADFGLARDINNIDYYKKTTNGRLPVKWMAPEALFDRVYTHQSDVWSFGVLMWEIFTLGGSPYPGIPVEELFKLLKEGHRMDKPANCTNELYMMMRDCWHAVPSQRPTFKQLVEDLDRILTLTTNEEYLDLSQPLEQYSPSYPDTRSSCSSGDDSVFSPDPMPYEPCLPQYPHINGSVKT
Chain of TNK2 (ACK) (Q07912 whole entry): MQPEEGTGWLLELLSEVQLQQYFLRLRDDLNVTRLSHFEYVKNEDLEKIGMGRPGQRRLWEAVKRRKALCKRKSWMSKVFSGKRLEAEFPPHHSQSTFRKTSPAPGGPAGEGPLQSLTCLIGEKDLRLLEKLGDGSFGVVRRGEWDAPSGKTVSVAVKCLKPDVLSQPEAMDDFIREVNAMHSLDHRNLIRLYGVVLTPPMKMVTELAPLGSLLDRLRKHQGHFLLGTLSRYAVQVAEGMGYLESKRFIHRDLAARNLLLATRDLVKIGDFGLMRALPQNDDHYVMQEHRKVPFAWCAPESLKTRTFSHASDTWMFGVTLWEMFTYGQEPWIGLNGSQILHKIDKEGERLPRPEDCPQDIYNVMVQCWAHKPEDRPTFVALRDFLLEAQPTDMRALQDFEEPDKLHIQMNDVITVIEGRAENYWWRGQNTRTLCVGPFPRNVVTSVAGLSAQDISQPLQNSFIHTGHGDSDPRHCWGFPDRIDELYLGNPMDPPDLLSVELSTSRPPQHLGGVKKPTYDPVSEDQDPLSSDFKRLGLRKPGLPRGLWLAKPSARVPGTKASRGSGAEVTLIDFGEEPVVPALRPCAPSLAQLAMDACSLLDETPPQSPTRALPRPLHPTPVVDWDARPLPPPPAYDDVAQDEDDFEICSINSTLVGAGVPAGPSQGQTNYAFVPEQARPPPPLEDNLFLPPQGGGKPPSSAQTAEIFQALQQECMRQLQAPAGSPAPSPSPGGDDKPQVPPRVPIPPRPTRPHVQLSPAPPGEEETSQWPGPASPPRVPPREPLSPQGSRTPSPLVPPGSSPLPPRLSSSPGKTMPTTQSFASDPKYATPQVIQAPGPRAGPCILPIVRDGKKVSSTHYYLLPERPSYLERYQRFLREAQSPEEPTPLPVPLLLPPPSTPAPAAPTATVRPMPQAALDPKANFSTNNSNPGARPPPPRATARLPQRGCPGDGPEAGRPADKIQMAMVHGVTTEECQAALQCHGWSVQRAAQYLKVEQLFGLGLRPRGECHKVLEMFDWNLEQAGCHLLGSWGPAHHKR
Chain of EPHA7 (Q15375 28-998): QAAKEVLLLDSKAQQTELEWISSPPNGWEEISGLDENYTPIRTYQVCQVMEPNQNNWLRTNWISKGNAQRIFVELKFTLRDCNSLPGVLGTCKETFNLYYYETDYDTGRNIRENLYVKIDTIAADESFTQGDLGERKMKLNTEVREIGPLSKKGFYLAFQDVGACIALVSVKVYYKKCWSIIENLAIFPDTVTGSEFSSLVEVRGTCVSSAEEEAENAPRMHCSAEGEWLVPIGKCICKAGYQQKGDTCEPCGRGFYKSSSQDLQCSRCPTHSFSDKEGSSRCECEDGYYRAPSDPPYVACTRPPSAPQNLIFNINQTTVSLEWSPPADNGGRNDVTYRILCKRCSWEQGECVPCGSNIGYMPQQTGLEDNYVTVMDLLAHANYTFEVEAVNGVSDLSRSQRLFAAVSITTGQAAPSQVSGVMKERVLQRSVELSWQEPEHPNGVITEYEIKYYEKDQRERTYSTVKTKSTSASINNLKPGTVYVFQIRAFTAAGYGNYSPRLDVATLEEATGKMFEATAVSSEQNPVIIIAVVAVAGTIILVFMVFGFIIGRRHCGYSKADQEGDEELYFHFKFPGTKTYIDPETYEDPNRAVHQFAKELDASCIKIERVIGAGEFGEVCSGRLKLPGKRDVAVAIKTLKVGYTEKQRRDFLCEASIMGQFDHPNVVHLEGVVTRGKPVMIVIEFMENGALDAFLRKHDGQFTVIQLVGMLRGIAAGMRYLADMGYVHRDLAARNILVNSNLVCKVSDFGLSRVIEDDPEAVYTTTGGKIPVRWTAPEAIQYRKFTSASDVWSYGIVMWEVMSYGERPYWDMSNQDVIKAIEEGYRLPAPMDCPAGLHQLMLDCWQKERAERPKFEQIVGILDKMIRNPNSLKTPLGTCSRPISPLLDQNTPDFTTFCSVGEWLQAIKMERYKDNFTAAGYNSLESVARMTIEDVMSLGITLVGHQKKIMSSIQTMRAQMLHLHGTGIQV

Take `COc1cc2nccc(Oc3ccc(NC(=O)C4(C(=O)Nc5ccc(F)cc5)CC4)cc3)c2cc1OC` [Cabozantinib, reference compound]: the inhibition at 1 µM on EPHA4 turned out to be 100%; at EPHA5, 100%; at EPHA7, 106%; on EPHA8 it was 104%; on FGFR2 it was 16%; on PEAK1 it was 85%. Moreover, the inhibition at 1 µM in assay [1] came to 0%; at TNK2 (ACK), 61%; on ZAP70 it was 13%.

In the case of `COc1cc2nccc(Oc3ccc(NC(=O)C4(NC(=O)c5ccc(F)cc5)CC4)cc3F)c2cc1OC` [Cbo-02, N-(1-((4-((6,7-diMethoxyquinolin-4-yl)oxy)-3-fluorophenyl)carbamoyl)cyclopropyl)-4-fluorobenzamide], the inhibition at 1 µM at EPHA4 was determined as 79%; on EPHA5, 41%; on EPHA7, 84%; on EPHA8, 42%; on FGFR2, 22%; on PEAK1 it was 38%. The results for the inhibition at 1 µM (in assay [1] (setting [2]); on TNK2 (ACK); at ZAP70) were -6%, 63% and 14%, respectively.

Consider `COc1cc2nccc(Oc3ccc(NC(=O)C4(NC(=O)c5ccc(F)cc5)CC4)cc3F)c2cc1Oc1ccc(N)cc1F` [Cbo-10], for which the inhibition at 1 µM at EPHA4 is 91%; at EPHA5 it was 87%; on EPHA7, 98%; at EPHA8, 76%; on FGFR2, 29%; on PEAK1, 55%. For the same compound, the figures for the inhibition at 1 µM (in assay [1] (setting [2]); on TNK2 (ACK); on ZAP70) were 10%, 95% and 6%, respectively.

For `COc1cc2nccc(Oc3ccc(NC(=O)C4(NC(=O)c5ccc(F)cc5)CC4)cc3F)c2cc1Oc1c(F)cc(N)cc1F` [Cbo-14], the inhibition at 1 µM came to 89% at EPHA4; 92% at EPHA5; 101% on EPHA7; 82% on EPHA8; 37% on FGFR2; 64% at PEAK1. In addition, the figures for the inhibition at 1 µM (in assay [1] (setting [2]); on TNK2 (ACK); on ZAP70) were 3%, 96% and 9%, respectively.

Take `COc1cc2nccc(Oc3ccc(NC(=O)C4(C(=O)Nc5ccc(F)cc5)CC4)cc3F)c2cc1Oc1ccc(N)cc1F` [Cbo-23]: the inhibition at 1 µM at EPHA4 worked out at 100%; at EPHA5, 99%; on EPHA7, 100%; on EPHA8, 100%; on FGFR2, 5%; in assay [1] (setting [2]), 4%. Also, the inhibition at 1 µM on TNK2 (ACK) is 89%; on ZAP70, 5%.
